According to US20250195513A1, “DEGRADATION OF IRAK4 BY CONJUGATION OF IRAK4 INHIBITORS WITH E3 LIGASE LIGAND AND METHODS OF USE” (BeiGene, Ltd., priority 2022, published 2025):

Columns and labels:
IRAK4 [1] = target: T1, IRAK4 (Homo sapiens, UniProt Q9NWZ3); assay: IRAK4 Degradation Assay (Karpas299, HTRF/TR-FRET); type: cell-based; details: Karpas-299 cells; for Dmax: maximum percentage of degradation
T1 construct: endogenous in cells; host or cells: Karpas299
T1 sequence (Q9NWZ3 1-460): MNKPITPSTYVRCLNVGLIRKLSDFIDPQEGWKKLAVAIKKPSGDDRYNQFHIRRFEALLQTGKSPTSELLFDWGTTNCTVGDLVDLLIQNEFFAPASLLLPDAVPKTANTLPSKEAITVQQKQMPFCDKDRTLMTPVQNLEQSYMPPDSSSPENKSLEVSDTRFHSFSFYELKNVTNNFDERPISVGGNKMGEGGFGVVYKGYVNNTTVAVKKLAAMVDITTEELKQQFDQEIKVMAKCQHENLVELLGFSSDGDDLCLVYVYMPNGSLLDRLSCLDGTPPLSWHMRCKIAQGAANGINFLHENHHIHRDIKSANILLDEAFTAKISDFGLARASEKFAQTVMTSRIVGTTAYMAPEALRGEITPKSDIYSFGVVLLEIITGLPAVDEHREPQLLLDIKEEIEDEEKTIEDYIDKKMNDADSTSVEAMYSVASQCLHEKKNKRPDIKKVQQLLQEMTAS
Outline: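 Karpas299 cells at 0.2 million per well were exposed to serially diluted compounds for 24 h or 5 h, then lysed. IRAK4 remaining in lysates was quantified by HTRF (665/620 nm) after overnight antibody incubation at room temperature. Percent degradation was fitted to a four-parameter curve to give IC50 (DC50).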

IRAK4 [2] = target: T1, IRAK4; assay: IRAK4 Degradation Assay with Human Serum (Karpas299, HTRF/TR-FRET); type: cell-based; details: Karpas-299 in human serum, 24 hrs treatment; for DC50: read-out: IRAK4 degradtion with human serum assay DC50; for Dmax: read-out: IRAK4 degradtion with human serum assay Dmax (%)
Protocol: IRAK4 degradation was measured using a TR-FRET-based method (Degorce, François, et al. Current chemical genomics. 2009, 3: 22). Karpas299 resuspended in Human serum AB (GEMINI, 100-512) were seeded into 96-well plates at the density of 0.2 million cells per well and then treated with a series dilution of compounds. After 24 hrs treatment, cells were pelleted via centrifugation and washed with PBS, add 40 μL lysis buffer (Cisbio) to each well after removal of the supernatant. Plates were then incubated at room temperature with shaking for 30 minutes. A total of 16 μL of cell lysates from each well of a 96-well plate was transferred to a 384-well white assay plate. IRAK4 level was quantitated using the HTRF kit as described by the manufacturer manual (Cisbio). FRET signals were measured using a PHERAstar FSX reader (BMG Labtech).
After treatment, add HTRF lysis buffer to each well; seal the plate and incubate 1 hour at room temperature on a plate shaker; Once the cells are lysed, 16 μL of cell lysate are transferred to a PE 384-well HTRF detection plate; 4 μL of pre-mixed HTRF antibodies are added to each well; Cover the plate with a plate sealer, spin 1000 rpm for 1 min, Incubate overnight at room temperature; Read on BMG PheraStar with HTRF protocol (337 nm-665 nm-620 nm).
The inhibition (degradation) percentage of the compound was calculated by the following equation: […]
The IC50 (DC50) value of a compound can be obtained by fitting the following equation
Wherein, X and Y are known values, and IC50, Hillslope, Top and Bottom are the parameters obtained by fitting with software. Y is the inhibition percentage (calculated from the equation), X is the concentration of the compound; IC50 is the concentration of the compound when the […] is reached. The smaller the IC50 value is, the stronger the inhibitory ability of the compound is. Vice versa, the higher the IC50 value is, the weaker the ability the inhibitory ability of the compound is; Hillslope represents the slope of the fitted curve, generally around 1 *; Bottom represents the minimum value of the curve obtained by data fitting, which is generally 0%±20%; Top represents the maximum value of the curve obtained by data fitting, which is generally 100%±20%. The experimental data were fitted by calculating and analyzing with Dotmatics data analysis software.

[3] = 24 h treatment, read-out: IRAK4 in Karpas-299 (24 h) Dmax (%)
[4] = 24 h treatment, read-out: IRAK4 in Karpas-299 (24 h) DC50

| Dmax (IRAK4 [1]; 5 h treatment, read-out: IRAK4 in Karpas-299 (5 h) Dmax (%)) [%] | DC50 (IRAK4 [1]; 5 h treatment, read-out: IRAK4 in Karpas-299 (5 h) DC50) [nM] | Dmax (IRAK4 [1]; [3]) [%] | DC50 (IRAK4 [1]; [4]) [nM] | DC50 (IRAK4 [2]) [nM] | Dmax (IRAK4 [2]) [%] | Structure (SMILES) |
| --- | --- | --- | --- | --- | --- | --- |
| 91 | 5.4 | 97 | 1.8 | 18 | 100 | Cc1cc(C2CCC(=O)NC2=O)c(F)cc1[C@H]1C[C@@H](N2CCN([C@H]3CC[C@H](n4cc5cc(NC(=O)c6ccc7cc(C#N)cnn67)c(C(C)(C)O)cc5n4)CC3)CC2)C1 (stereo partly drawn) [Example 296, 3-cyano-N-(2-((1R,4r)-4-(4-((1s,3S)-3-(4-(2,6-dioxopiperidin-3-yl)-5-fluoro-2-methylphenyl)cyclobutyl)piperazin-1-yl)cyclohexyl)-6-(2-hydroxypropan-2-yl)-2H-indazol-5-yl)pyrrolo[1,2-b]pyridazine-7-carboxamide] |
|  |  | 98 | 1.8 | 18 | 91 | COC[C@@H]1CN([C@H]2CC[C@H](n3cc4cc(NC(=O)c5ccc6cc(C#N)cnn56)c(C(C)(C)O)cc4n3)CC2)CCN1C(=O)C1CN(c2cc(F)c(N3CCC(=O)NC3=O)c(F)c2)C1 [Example 410, 3-cyano-N-(2-((1S,4r)-4-((S)-4-(1-(4-(2,4-dioxotetrahydropyrimidin-1(2H)-yl)-3,5-difluorophenyl)azetidine-3-carbonyl)-3-(methoxymethyl)piperazin-1-yl)cyclohexyl)-6-(2-hydroxypropan-2-yl)-2H-indazol-5-yl)pyrrolo[1,2-b]pyridazine-7-carboxamide] |
|  |  | 96 | 2.6 | 15 | 99 | CC(C)(O)c1cc2nn([C@H]3CC[C@H](N4CCN(C(=O)[C@@H]5CCN(c6ccc(N7CCC(=O)NC7=O)cc6)C5)CC4)CC3)cc2cc1NC(=O)c1ccc2cc(C#N)cnn12 [Example 263, 3-cyano-N-(2-((1R,4r)-4-(4-((R)-1-(4-(2,4-dioxotetrahydropyrimidin-1(2H)-yl)phenyl)pyrrolidine-3-carbonyl)piperazin-1-yl)cyclohexyl)-6-(2-hydroxypropan-2-yl)-2H-indazol-5-yl)pyrrolo[1,2-b]pyridazine-7-carboxamide] |
|  |  | 98 | 0.6 | 19 | 94 | CC(=O)c1cc2nn([C@H]3CC[C@H](N4CCN(C5CN(c6cc(F)c([C@H]7CCC(=O)NC7=O)c(F)c6)C5)CC4)CC3)cc2cc1NC(=O)c1ccc2cc(C#N)cnn12 [Example 425, N-(6-acetyl-2-((1R,4r)-4-(4-(1-(4-((R)-2,6-dioxopiperidin-3-yl)-3,5-difluorophenyl)azetidin-3-yl)piperazin-1-yl)cyclohexyl)-2H-indazol-5-yl)-3-cyanopyrrolo[1,2-b]pyridazine-7-carboxamide] |
|  |  | 93 | 1.1 | 7.7 | 93 | C[C@@H]1CN([C@H]2C[C@@H](c3cc(F)c([C@H]4CCC(=O)NC4=O)c(F)c3)C2)CCN1[C@H]1CC[C@H](n2cc3cc(NC(=O)c4ccc5cc(C#N)cnn45)c(C(C)(C)O)cc3n2)CC1 [Example 365, 3-cyano-N-(2-((1R,4r)-4-((R)-4-((1S,3S)-3-(4-((R)-2,6-dioxopipendin-3-yl)-3,5-difluorophenyl)cyclobutyl)-2-methylpiperazin-1-yl)cyclohexyl)-6-(2-hydroxypropan-2-yl)-2H-indazol-5-yl)pyrrolo[1,2-b]pyridazine-7-carboxamide] |
|  |  | 97 | 1.1 | 12 | 97 | CC(C)(O)c1cc2nn([C@H]3CC[C@H](N4CCN(CCCc5cc(F)c([C@H]6CCC(=O)NC6=O)c(F)c5)CC4)CC3)cc2cc1NC(=O)c1ccc2cc(C#N)cnn12 [Example 357, 3-cyano-N-(2-((1R,4r)-4-(4-(3-(4-((R)-2,6-dioxopiperidin-3-yl)-3,5-difluorophenyl)propyl)piperazin-1-yl)cyclohexyl)-6-(2-hydroxypropan-2-yl)-2H-indazol-5-yl)pyrrolo[1,2-b]pyridazine-7-carboxamide] |
|  |  | 96 | 2.6 | 21 | 97 | COc1cc(N2CC(C(=O)N3CCN([C@H]4CC[C@H](n5cc6cc(NC(=O)c7ccc8cc(C#N)cnn78)c(C(C)(C)O)cc6n5)CC4)CC3)C2)c(F)cc1N1CCC(=O)NC1=O [Example 258, 3-cyano-N-(2-((1r,4r)-4-(4-(1-(4-(2,4-dioxotetrahydropyrimidin-1(2H)-yl)-2-fluoro-5-methoxyphenyl)azetidine-3-carbonyl)piperazin-1-yl)cyclohexyl)-6-(2-hydroxypropan-2-yl)-2H-indazol-5-yl)pyrrolo[1,2-b]pyridazine-7-carboxamide] |
|  |  | 96 | 1.5 | 439 | 97 | CC(C)(O)c1cc2nn([C@H]3CC[C@H](N4CCN(CCc5cc(F)c([C@H]6CCC(=O)NC6=O)c(F)c5)CC4)CC3)cc2cc1NC(=O)c1ccc2cc(Br)cnn12 [Example 414, 3-bromo-N-(2-((1R,4r)-4-(4-(4-((R)-2,6-dioxopiperidin-3-yl)-3,5-difluorophenethyl)piperazin-1-yl)cyclohexyl)-6-(2-hydroxypropan-2-yl)-2H-indazol-5-yl)pyrrolo[1,2-b]pyridazine-7-carboxamide] |
|  |  | 97 | 0.8 | 21 | 99 | CC(C)(O)c1cc2nn([C@H]3CC[C@H](N4CCN([C@H]5CCN(c6cc(F)c(C7CCC(=O)NC7=O)c(F)c6)C5)CC4)CC3)cc2cc1NC(=O)c1ccc2cc(C#N)cnn12 (stereo partly drawn) [Example 395, 3-cyano-N-(2-((1S,4r)-4-(4-((3S)-1-(4-(2,6-dioxopiperidin-3-yl)-3,5-difluorophenyl)pyrrolidin-3-yl)piperazin-1-yl)cyclohexyl)-6-(2-hydroxypropan-2-yl)-2H-indazol-5-yl)pyrrolo[1,2-b]pyridazine-7-carboxamide] |
|  |  | 95 | 0.9 | 4.5 | 95 | CC(C)(O)c1cc2nn([C@H]3CC[C@H](N4CCN(C5CCN(c6ccc7c(c6)CN(C6CCC(=O)NC6=O)C7=O)CC5)CC4)CC3)cc2cc1NC(=O)c1ccc2cc(C#N)cnn12 (stereo partly shown) [Example 417, 3-cyano-N-(2-((1r,4r)-4-(4-(1-(2-(2,6-dioxopiperidin-3-yl)-1-oxoisoindolin-5-yl)piperidin-4-yl)piperazin-1-yl)cyclohexyl)-6-(2-hydroxypropan-2-yl)-2H-indazol-5-yl)pyrrolo[1,2-b]pyridazine-7-carboxamide] |
|  |  | 96 | 2.5 | 17 | 96 | CC(C)(O)c1cc2nn([C@H]3CC[C@H](CN4CCN(CCNc5cccc6c5C(=O)N(C5CCC(=O)NC5=O)C6=O)CC4)CC3)cc2cc1NC(=O)c1ccc2cc(C#N)cnn12 (stereo partly shown) [Example 438, 3-cyano-N-(2-((1r,4r)-4-((4-(2-((2-(2,6-dioxopiperidin-3-yl)-1,3-dioxoisoindolin-4-yl)amino)ethyl)piperazin-1-yl)methyl)cyclohexyl)-6-(2-hydroxypropan-2-yl)-2H-indazol-5-yl)pyrrolo[1,2-b]pyridazine-7-carboxamide] |
